Measurements: patent US9809532B2, “Uses of histone acetyltransferase activators” (THE TRUSTEES OF COLUMBIA UNIVERSITY IN THE CITY OF NEW YORK, priority 2011, dated 2017)

Tests used:
[1] = precipitated as soon as put in H2O; cited from earlier work
Sirtuin 1 = biological target: T1, Sirtuin 1 (Homo sapiens, UniProt Q96EB6); experiment: Sirtuin 1 activity assay (fluorescence)
T1 sequence (Q96EB6 1-747): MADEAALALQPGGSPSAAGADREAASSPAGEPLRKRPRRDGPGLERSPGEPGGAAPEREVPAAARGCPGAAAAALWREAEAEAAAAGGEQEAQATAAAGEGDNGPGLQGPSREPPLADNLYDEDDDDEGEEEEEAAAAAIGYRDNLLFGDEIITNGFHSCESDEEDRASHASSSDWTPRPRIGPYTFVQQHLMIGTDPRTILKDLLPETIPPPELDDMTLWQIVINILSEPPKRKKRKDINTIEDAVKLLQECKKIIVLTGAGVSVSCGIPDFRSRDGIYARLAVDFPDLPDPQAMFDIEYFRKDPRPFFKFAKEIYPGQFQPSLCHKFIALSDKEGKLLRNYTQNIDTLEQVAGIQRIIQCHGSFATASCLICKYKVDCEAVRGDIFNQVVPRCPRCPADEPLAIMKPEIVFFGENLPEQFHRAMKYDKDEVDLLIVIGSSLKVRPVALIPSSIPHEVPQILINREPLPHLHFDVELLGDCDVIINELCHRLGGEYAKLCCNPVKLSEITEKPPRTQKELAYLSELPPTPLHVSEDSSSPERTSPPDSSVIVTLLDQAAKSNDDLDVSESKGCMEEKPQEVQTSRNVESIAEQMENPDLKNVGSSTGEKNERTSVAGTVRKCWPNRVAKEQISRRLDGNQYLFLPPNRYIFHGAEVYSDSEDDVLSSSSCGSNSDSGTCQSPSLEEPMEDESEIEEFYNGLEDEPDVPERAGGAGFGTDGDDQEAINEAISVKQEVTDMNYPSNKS

Sirtuin 2 = biological target: T2, Sirtuin 2 (Homo sapiens, UniProt Q8IXJ6); experiment: Sirtuin 2 activity assay (fluorescence); settings: Sirtuin 2
T2 sequence (Q8IXJ6 1-389): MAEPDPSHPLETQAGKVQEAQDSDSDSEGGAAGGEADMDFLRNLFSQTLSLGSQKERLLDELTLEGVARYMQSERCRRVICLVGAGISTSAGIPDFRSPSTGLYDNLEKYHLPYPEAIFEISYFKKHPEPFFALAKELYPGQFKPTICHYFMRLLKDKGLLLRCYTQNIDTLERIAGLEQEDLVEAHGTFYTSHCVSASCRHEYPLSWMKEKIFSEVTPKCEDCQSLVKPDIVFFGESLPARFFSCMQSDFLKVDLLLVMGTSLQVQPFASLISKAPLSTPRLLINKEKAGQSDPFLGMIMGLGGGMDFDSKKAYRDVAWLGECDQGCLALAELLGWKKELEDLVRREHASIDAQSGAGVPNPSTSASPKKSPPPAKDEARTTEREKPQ

CCOc1ccccc1C(=O)Nc1ccc(Cl)c(C(F)(F)F)c1 [N-(4-chloro-3-trifluoromethyl-phenyl)-2-ethoxy-benzamide]
solubility in water [1]: very poorly solubile in water

O=C(CCCCCCC(=O)Nc1ccccc1)NO [SAHA, reference compound]
IC50 (Sirtuin 1): > 10 µM | IC50 (Sirtuin 2): > 10 µM
